Values joined by “and” are separate entries in the source; they are usually repeats but may differ in a detail not shown here. Identical values can stand only once.
Conditions: Liquid, Closed cell (Static) method

CO [methanol]
Conditions	vapor or sublimation pressure [kPa]
274.15 K	4.252
278.15 K	5.501
283.15 K	7.411
293.15 K	13
303.15 K	21.86
313.15 K	35.43
323.15 K	55.54
333.15 K	84.93
343.15 K	125.74
353.15 K	181.56
363.15 K	256.27
373.15 K	354.35
383.15 K	480.82
393.15 K	641.27
403.15 K	841.83
413.15 K	1089.2

O [water]
Conditions	vapor or sublimation pressure
279.48 K	0.953 kPa
286.16 K	1.508 kPa
291.39 K	2.094 kPa
293.14 K	2.337 kPa
296.31 K	2.839 kPa
296.32 K	2.834 kPa
298.81 K	3.288 kPa
301.37 K	3.827 kPa
303.57 K	4.36 kPa
307.73 K	5.507 kPa
308.26 K	5.666 kPa
312.87 K	7.275 kPa
313.07 K	7.345 kPa
314.62 K	7.977 kPa
318.13 K	9.585 kPa and 9.578 kPa
322.99 K	12.26 kPa
323.1 K	12.32 kPa
323.17 K	12.36 kPa
328.14 K	15.75 kPa
328.88 K	16.31 kPa
